Where “and” joins values, the source holds several entries; their conditions need not be identical. Equal entries are not always repeated. Inconclusive results and toxic doses are left out. Rule for the calls: active = survival T/C of 150% or more; inactive = T/C below 125% in these data.
Tested on: P388 leukemia ip, CD2F1 mice, survival T/C
Experiment: NCI In Vivo Anticancer Drug Screen. Data for tumor model P388 Leukemia (intraperitoneal) in CD2F1 (CDF1) mice
Details: endpoint: median survival time, higher = longer survival
Procedure, shortened: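 Mice carrying the transplanted tumor received test compound or vehicle. Survival was recorded in each group, and the value is the treated-group measurement divided by that of the vehicle-treated control group.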

[1] = dose: 25.0 mg/kg/injection, schedule: Q01DX009 (ip), vehicle: Klucel (hydroxypropylcellulose) (HPC)
[2] = dose: 50.0 mg/kg/injection, schedule: Q01DX009 (ip), vehicle: Klucel (hydroxypropylcellulose) (HPC)
[3] = dose: 100.0 mg/kg/injection, schedule: Q01DX009 (ip), vehicle: Klucel (hydroxypropylcellulose) (HPC)
[4] = dose: 200.0 mg/kg/injection, schedule: Q01DX009 (ip), vehicle: Klucel (hydroxypropylcellulose) (HPC)
[5] = dose: 50.0 mg/kg/injection, schedule: Q01DX009 (ip), vehicle: saline with Tween-80
[6] = dose: 100.0 mg/kg/injection, schedule: Q01DX009 (ip), vehicle: saline with Tween-80
[7] = dose: 200.0 mg/kg/injection, schedule: Q01DX009 (ip), vehicle: saline with Tween-80
[8] = dose: 50.0 mg/kg/injection, schedule: Q01DX005 (ip), vehicle: Klucel (hydroxypropylcellulose) (HPC)
[9] = dose: 100.0 mg/kg/injection, schedule: Q01DX005 (ip), vehicle: Klucel (hydroxypropylcellulose) (HPC)
[10] = dose: 200.0 mg/kg/injection, schedule: Q01DX005 (ip), vehicle: Klucel (hydroxypropylcellulose) (HPC)
[11] = dose: 25.0 mg/kg/injection, schedule: Q01DX009 (ip), vehicle: saline with Tween-80
[12] = dose: 400.0 mg/kg/injection, schedule: Q01DX009 (ip), vehicle: saline with Tween-80
[13] = dose: 100.0 mg/kg/injection, schedule: Q01DX001 (ip), vehicle: saline with Tween-80
[14] = dose: 25.0 mg/kg/injection, schedule: Q01DX005 (ip), vehicle: Klucel (hydroxypropylcellulose) (HPC)
[15] = dose: 100.0 mg/kg/injection, schedule: Q04DX003 (ip), vehicle: saline with Tween-80
[16] = dose: 200.0 mg/kg/injection, schedule: Q04DX003 (ip), vehicle: saline with Tween-80

Measured: T/C

CCN(CC)CCCC(C)Nc1ncnc2ccc(OC)cc12 (stereo not drawn)
inactive: dose: 50.0 mg/kg/injection, schedule: Q01DX005 (ip), vehicle: saline 94 % of control | dose: 100.0 mg/kg/injection, schedule: Q01DX005 (ip), vehicle: saline 99 % of control | dose: 200.0 mg/kg/injection, schedule: Q01DX005 (ip), vehicle: saline 94 % of control

O=c1[nH]cc([N+](=O)[O-])c(=O)[nH]1
inactive: [1] 94 % of control | [2] 99 % of control | [3] 95 % of control | dose: 100.0 mg/kg/injection, schedule: Q01DX009 (ip), vehicle: distilled water + Tween-80 102 % of control | [4] 107 % of control | dose: 200.0 mg/kg/injection, schedule: Q01DX009 (ip), vehicle: distilled water + Tween-80 100 % of control | dose: 400.0 mg/kg/injection, schedule: Q01DX009 (ip), vehicle: distilled water + Tween-80 99 % of control

Cc1ccc(S(=O)(=O)Sc2nnnn2C)cc1
inactive: [2] 106 % of control | [3] 97 % of control

O=C(O)c1ccccc1-c1c2cc(Br)c(=O)cc-2oc2[c]([Hg])c(O)c(Br)cc12
inactive: dose: 6.25 mg/kg/injection, schedule: Q01DX005 (ip), vehicle: saline 106 % of control | dose: 12.5 mg/kg/injection, schedule: Q01DX005 (ip), vehicle: saline 109 % of control | dose: 25.0 mg/kg/injection, schedule: Q01DX005 (ip), vehicle: saline 107 % of control

CCC(C)C(=O)/C=C/c1ccc(Cl)c(Cl)c1 (stereo not drawn)
inactive: [5] 99 % of control | [6] 99 % of control | [7] 99 % of control

COc1ccc(C(C)c2cc3c(cc2OC)OCO3)cc1 (stereo not drawn)
inactive: dose: 12.5 mg/kg/injection, schedule: Q01DX005 (ip), vehicle: saline with Tween-80 101 % of control and 109 % of control and 95 % of control | dose: 25.0 mg/kg/injection, schedule: Q01DX005 (ip), vehicle: saline + alcohol 92 % of control | dose: 50.0 mg/kg/injection, schedule: Q01DX005 (ip), vehicle: saline + alcohol 91 % of control | dose: 100.0 mg/kg/injection, schedule: Q01DX005 (ip), vehicle: saline + alcohol 93 % of control | dose: 200.0 mg/kg/injection, schedule: Q01DX005 (ip), vehicle: saline + alcohol 106 % of control

CCN(CC)C1=C(c2ccccc2)C(=O)C1(C#N)C(C)(C)C (stereo not drawn)
inactive: [8] 98 % of control | [9] 93 % of control | [10] 93 % of control

COc1ccccc1/C(=N/Nc1ccccc1)[N+](=O)[O-]
inactive: dose: 50.0 mg/kg/injection, schedule: Q01DX009 (ip), vehicle: saline + Tween-80 + alcohol 106 % of control | dose: 100.0 mg/kg/injection, schedule: Q01DX009 (ip), vehicle: saline + Tween-80 + alcohol 101 % of control | dose: 200.0 mg/kg/injection, schedule: Q01DX009 (ip), vehicle: saline + Tween-80 + alcohol 109 % of control

Ic1ccc(N=Cc2ccc(C=Nc3ccc(I)cc3)cc2)cc1
inactive: dose: 12.5 mg/kg/injection, schedule: Q01DX009 (ip), vehicle: Klucel (hydroxypropylcellulose) (HPC) 99 % of control | [1] 95 % of control | [2] 100 % of control | [3] 86 % of control | [4] 89 % of control

COc1ccc(C2OCOCC2C)cc1 (stereo not drawn)
inactive: [11] 103 % of control | [5] 100 % of control | [6] 103 % of control | [7] 101 % of control | [12] 95 % of control

CC1OC(=S)N(c2cccc3ccccc23)C1=O (stereo not drawn)
inactive: [13] 93 % of control | dose: 200.0 mg/kg/injection, schedule: Q01DX001 (ip), vehicle: saline with Tween-80 90 % of control | dose: 400.0 mg/kg/injection, schedule: Q01DX001 (ip), vehicle: saline with Tween-80 94 % of control

CSc1nc2n(C)cc(C)cc-2c(=O)n1
inactive: dose: 25.0 mg/kg/injection, schedule: Q01DX001 (ip), vehicle: saline with Tween-80 97 % of control | dose: 50.0 mg/kg/injection, schedule: Q01DX001 (ip), vehicle: saline with Tween-80 97 % of control | [13] 99 % of control

NC(CS(=O)(=O)NO)C(=O)O (stereo not drawn)
inactive: dose: 60.0 mg/kg/injection, schedule: Q01DX009 (ip), vehicle: saline with Tween-80 97 % of control | dose: 120.0 mg/kg/injection, schedule: Q01DX009 (ip), vehicle: saline with Tween-80 113 % of control | dose: 240.0 mg/kg/injection, schedule: Q01DX009 (ip), vehicle: saline with Tween-80 119 % of control

COc1cccc(C2OC3=C(Nc4ccccc4N3)C2=O)c1 (stereo not drawn)
inactive: [14] 98 % of control | [8] 100 % of control | dose: 60.0 mg/kg/injection, schedule: Q01DX005 (ip), vehicle: Klucel (hydroxypropylcellulose) (HPC) 97 % of control | [9] 94 % of control | dose: 120.0 mg/kg/injection, schedule: Q01DX005 (ip), vehicle: Klucel (hydroxypropylcellulose) (HPC) 95 % of control | [10] 94 % of control | dose: 240.0 mg/kg/injection, schedule: Q01DX005 (ip), vehicle: Klucel (hydroxypropylcellulose) (HPC) 94 % of control | dose: 400.0 mg/kg/injection, schedule: Q01DX005 (ip), vehicle: Klucel (hydroxypropylcellulose) (HPC) 98 % of control

CC(=O)OC1CC(C(C)C2CC(C)=C(C)C(=O)O2)C2(C)CCC3C(CC4OC45C(O)C=CC(=O)C35C)C12O (stereo not drawn)
inactive: dose: 7.5 mg/kg/injection, schedule: Q01DX005 (ip), vehicle: Klucel (hydroxypropylcellulose) (HPC) 108 % of control | dose: 15.0 mg/kg/injection, schedule: Q01DX005 (ip), vehicle: Klucel (hydroxypropylcellulose) (HPC) 105 % of control | dose: 30.0 mg/kg/injection, schedule: Q01DX005 (ip), vehicle: Klucel (hydroxypropylcellulose) (HPC) 101 % of control

CC(C)CCC[C@@H](C)[C@H]1CC[C@H]2[C@@H]3CC[C@H]4C[C@H](N)CC[C@]4(C)[C@H]3CC[C@]12C
inactive: dose: 12.5 mg/kg/injection, schedule: Q01DX005 (ip), vehicle: Klucel (hydroxypropylcellulose) (HPC) 100 % of control | [14] 93 % of control | [8] 112 % of control and 97 % of control

O=[N+]([O-])c1ccccc1O
inactive: dose: 12.5 mg/kg/injection, schedule: Q01DX009 (ip), vehicle: saline with Tween-80 109 % of control | [11] 113 % of control | [5] 109 % of control | [15] 105 % of control | [16] 110 % of control | dose: 400.0 mg/kg/injection, schedule: Q04DX003 (ip), vehicle: saline with Tween-80 105 % of control

Cc1cc(C=C2C(=O)c3ccccc3C2=O)cc(C)c1O
inactive: dose: 100.0 mg/kg/injection, schedule: Q04DX002 (ip), vehicle: saline 97 % of control | dose: 200.0 mg/kg/injection, schedule: Q04DX002 (ip), vehicle: saline 101 % of control | dose: 400.0 mg/kg/injection, schedule: Q04DX002 (ip), vehicle: saline 93 % of control

COc1cccc(C(Cc2ccccc2)NCc2ccccc2)c1O (stereo not drawn)
inactive: dose: 50.0 mg/kg/injection, schedule: Q01DX005 (ip), vehicle: saline with Tween-80 105 % of control | dose: 100.0 mg/kg/injection, schedule: Q01DX005 (ip), vehicle: saline with Tween-80 103 % of control | dose: 200.0 mg/kg/injection, schedule: Q01DX005 (ip), vehicle: saline with Tween-80 101 % of control

N#Cc1ccc(N2CCCC2)c(C#N)c1Cl
inactive: [8] 100 % of control | [9] 96 % of control | [10] 99 % of control

CC(=O)Nc1ccc(C(=O)O)cc1[N+](=O)[O-]
inactive: [6] 99 % of control | [7] 99 % of control | [12] 97 % of control

N=C(N)SCCC(=O)Nc1ccccc1
inactive: [15] 106 % of control | [16] 106 % of control

NC(CCC(=O)O)(C(=O)O)c1ccccc1 (stereo not drawn)
inactive: dose: 0.19 mg/kg/injection, schedule: Q01DX009 (ip), vehicle: saline 101 % of control | dose: 0.38 mg/kg/injection, schedule: Q01DX009 (ip), vehicle: saline 104 % of control | dose: 0.75 mg/kg/injection, schedule: Q01DX009 (ip), vehicle: saline 100 % of control | dose: 1.5 mg/kg/injection, schedule: Q01DX009 (ip), vehicle: saline with Tween-80 98 % of control | dose: 1.5 mg/kg/injection, schedule: Q01DX009 (ip), vehicle: saline 109 % of control | dose: 3.0 mg/kg/injection, schedule: Q01DX009 (ip), vehicle: saline with Tween-80 98 % of control | [6] 92 % of control | [7] 93 % of control

O=C(N/N=C/c1ccccc1O)c1ccccc1-n1cccc1
inactive: [5] 95 % of control | [6] 104 % of control | [7] 94 % of control
